For one data set, the system named is human blood cells. Conditions: addition of creatinine to human blood cells; cited from earlier work.
The conditions of data set [1]: normal human volunteers who had ingested creatinine; cited from earlier work.
The conditions of data set [2]: dogs; cited from earlier work.
The conditions of data set [3]: injection of creatinine; mice; cited from earlier work.
For data set [4] the following is noted: cited from earlier work.
Data set [5] in a line: Chemical stability of creatine nitrate, creatine monohydrate and buffered creatine in pH 2.5 and pH 6.8 buffer. To be noted: for pH of samples, initial: start of 12 days; for pH of samples, final: within a period of 12 days; for degradation rate constant: about 10 mg/ml. The method, then:
The chemical stability of creatine nitrate (CN), creatine monohydrate (CM), and buffered creatine (BC) were examined under two different storage conditions: (1) 37° C. in pH 2.5 buffer and (2) 40° C. in pH 6.8 buffer. A concentration of about 10 mg/ml of CN, CM and BC were prepared in both pH 2.5 and pH 6.8 buffer and stored in stability chambers in screw capped bottles at 37° C. and 40° C., respectively.

The conditions of data set [6]: dosages up to 30 g for a few days; human subject; cited from earlier work.
Data set [7] in a line: Human study: side effects, liver and kidney function (Example 7). The format is in vivo.
The conditions of data set [8]: cited from earlier work; for creatine degraded: three days of storage at 25° C.
For data set [9] the following is noted: radiokinetic bioavailability study; cited from earlier work.
The conditions of data set [10]: with caffeine intake; cited from earlier work.

SMILES strings stand for the structures. Read-outs that look alike come from different tables or passages of the source.

For `CN1CC(=O)NC1=N` [creatinine], the spontaneous hemolysis result in the data set on human blood cells is “significant increase in spontaneous hemolysis”. In addition, the red cell lysis result in data set [1] is “same red cell lysing pattern”. The erythrocyte survival time entry in [2] was “significant decrease”. Also, in data set [3], the behavioural effect entry is listed as “sedating or stupefying effect”.

For the molecule `CN(CC(=O)O)C(=N)N.O` [CM, creatine monohydrate], the degradation in solution entry in data set [4] (refrigerated) is “slowed the rate of degradation”; in [4] (stored at room temperature) it was “degraded into creatinine within several days”. In addition, in [5] (37° C. in pH 2.5 buffer), the “pH of samples, initial” value came to 3.08±0.01. Also, in data set [5] (37° C. in pH 2.5 buffer), the “pH of samples, final” value came out at 4.12±0.01. The “increase of total creatine content in skeletal muscles” value in [6] is recorded as “more than 20%”. For the same molecule, the “negative side effects (side effect reporting questionnaire)” value in data set [7] (in vivo) is on record as “one subject reported gastrointestinal disturbances”.

Molecule `CN(CC(=O)O)C(=N)N.O=[N+]([O-])O` [CN, creatine nitrate] came in with a degradation rate constant in data set [5] (37° C. in pH 2.5 buffer) of 0.075±0.001 per day. In addition, in data set [5] (40° C. in pH 6.8 buffer), the degradation rate constant was 0.115±0.001 per day; the “pH of samples, initial” value amounted to 2.83±0.01; the “pH of samples, final” value came to 4.31±0.01. Also, the “negative side effects (side effect reporting questionnaire)” value in [7] (ten human volunteers, nine did not report any negative side effects) is recorded as “one subject reported gastrointestinal disturbances”.

In the case of `CN(CC(=O)O)C(=N)N` [creatine], the stability in solution result in [8] (neutral pH (7.5 or 6.5)) is recorded as “relatively stable”. The creatine degraded in data set [8] (pH 3.5) was 21%; in data set [8] (pH 4.5) it was 12%; in [8] (pH 5.5), 4%. The creatine bioavailability entry in [9] is recorded as “sharply reduced with increasing doses”. The “ergogenic effect on muscle” value in [10] is listed as “completely eliminated”.
